Values quoted from earlier work as cited in patent US20120058950A1, “DETECTION OF NEUROPEPTIDES ASSOCIATED WITH PELVIC PAIN DISORDERS AND USES THEREOF” (University of Vermont and State Agricultural College, priority 2003, published 2012).
No end group written: not given here.

For “Pituitary Adenylate Cyclase Activating Peptide (HSDGIFTDSYSRYRKQMAVKKYLAAVLGKRYKQRVKNK; ends and bridges not checked; UniProt P18509 132-169, looked up) [PACAP]”, the “bladder activity in vitro (contraction of detrusor, alteration of electrically or cholinergically elicited contractions)” value (detrusor) is listed as “no bladder activity in vitro” and the “activity when infused near the bladder” value (bladder) is listed as “has activity when infused near the bladder”.
